The values below come from patent EP3810127B1, “USE OF MILBEMYCIN OXIME AGAINST SEA LICE ON FISH” (Pharmaq AS, priority 2018, dated 2019).

Like-named read-outs stand apart in the source and are kept apart here.

Assay [1] has as its system sea lice. The note with it: cited from earlier work.
Assay [2] deals with sea lice. Conditions: injectable composition, cited from earlier work.
The test system of the next assay is salmon lice. Conditions: one hour bath on Day 1, lice counted on Day 3.
The test system of assay [3] is copepodids from salmon lice with reduced sensitivity. The experiment in a line: in-vitro 1 hour exposure of copepodids in sea water. The note with it: exposed 1 hour, 96 hours post-exposure.
Assay [4] relates to adult reduced sensitivity lice. The experiment in a line: in-vitro 1 hour exposure of adult lice in sea water. The note with it: exposed 1 hour, 48 hours post-exposure. Set-up: species or system salmon lice.
Assay [5] relates to adult stages of L. salmonis. The experiment in a line: in-vivo bath exposure of Atlantic salmon infested with adult lice. The note with it: one hour bath, female lice counted on Day 3. As for the experimental part: In a separate in-vivo study, Atlantic salmon infested with adult stages of L. salmonis were housed in a 500L tank with sea water at 12°C before drug exposure. Fish were randomly extracted from the holding tank and distributed to the treatment containers (n=14/container). […] Fish were then transferred to observation tanks. Fish were dosed with 500ppb, 250ppb, 125ppb, and 62.5ppb milbemycin oxime. […] On Day 3, fish were terminated and the number of female salmon lice were counted on each of the fish. Milbemycin oxime was 100% efficacious against the sea lice at all dose levels.

Assay [6] deals with preadult salmon lice with reduced sensitivity. The experiment in a line: in-vitro 1 hour exposure of preadult lice in sea water.

Take “23(S)-t-butyloxyimino-25(S)-t-butyl milbemycin X [VS55759]”: in the assay on sea lice [1] (0.1ppm (100ppb) in a bath solution), the “efficacious against sea lice” value is recorded as “efficacious”. For the same molecule, the “effective against sea lice” value in the assay on sea lice [1] (100ppb dose, immersion) was 100%.

`O=C(NC(=O)c1c(F)cccc1F)Nc1cc(Cl)c(OC(F)(F)C(F)F)c(Cl)c1` [hexaflumuron]: the “efficacy against sea lice” value in the assay on sea lice [2] (50mg/kg) is given as “provided efficacy”.

Regarding `O=C(NC(=O)c1c(F)cccc1F)Nc1cc(Cl)c(OC(F)(F)C(F)C(F)(F)F)cc1Cl` (stereo not drawn) [lufenuron], the “efficacy against sea lice” value with sea lice [2] (50mg/kg) is recorded as “provided efficacy”.

On to milbemycin oxime, for which the “efficacy against sea lice” value in the assay on sea lice [2] (dose of 0.5mg/kg) was “not efficacious”. Further, the “efficacious against adult sea lice” value with salmon lice (7.8ppb), with salmon lice (31.3ppb) and in the assay on salmon lice (62.5ppb) was 100% in each case. Also, in the assay with salmon lice (15.6ppb, remaining living lice loosely attached to the caudal fin), the Efficacy is 66.6%. Further, the state of copepodids entry in assay [3] (12.5ppb), in assay [3] (25ppb) and in assay [3] (50ppb) was “moribund” in each case. For the same molecule, in assay [4] (2ppb), the moribund rate is listed as 82%. Also, the “state of adult lice” value in assay [4] (10ppb) and in assay [4] (25ppb) was “all dead or moribund” each time. Moreover, the “efficacious against the sea lice” value in assay [5] (62.5ppb), in assay [5] (125ppb), in assay [5] (250ppb) and in assay [5] (500ppb) was 100% in each case. The “state of preadult lice” value in assay [6] (5ppb, exposed 1 hour, 48 hours post-exposure) is listed as “all were moribund”. Further, the “more effective at killing sea lice than VS55759” value in assay [6] (milbemycin oxime at 5ppb compared with VS55759 at 50ppb (60% morbidity)) is listed as “at least 10 x”.
